The results in this text go back to publication PMC3651789 (Current biology : CB, 2013).

For one assay, the target named is T1, AEX-2/GPCR (Caenorhabditis elegans, UniProt G5ECD9).
T1 sequence (G5ECD9 1-321): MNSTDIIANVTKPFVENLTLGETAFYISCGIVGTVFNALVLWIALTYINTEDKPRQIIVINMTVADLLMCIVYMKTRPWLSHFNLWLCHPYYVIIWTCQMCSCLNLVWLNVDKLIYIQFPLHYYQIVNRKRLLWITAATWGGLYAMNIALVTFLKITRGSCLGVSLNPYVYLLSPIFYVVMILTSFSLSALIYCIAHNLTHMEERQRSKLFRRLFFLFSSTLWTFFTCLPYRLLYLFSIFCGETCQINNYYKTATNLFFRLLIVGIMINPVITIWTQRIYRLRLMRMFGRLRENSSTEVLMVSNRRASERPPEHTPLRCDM
As to the kind of experiment: In vitro cellular assay for AEX-2/GPCR activation by NLP-40-derived peptides. It counts as cell-based, C. elegans. To be noted: for activation of AEX-2/GPCR (in words): CHO/mtAEQ/Gα16 cells transfected with AEX-2/GPCR, aequorin luminescence, all concentrations tested.

The subject of assay [1] is enteric muscle contractions (Exp). As to the kind of experiment: Enteric muscle contraction. The format is in vivo, C. elegans. To be noted: peptide injection; data not shown.

Consider VAWQPM [NLP-40 P3-2], for which the “activation of AEX-2/GPCR (in words)” value on AEX-2/GPCR is “able to activate AEX-2/GPCR”. With MVAWQPM [NLP-40 P3-1], the “induction of enteric muscle contractions (Exp) (in words)” value in assay [1] is recorded as “failed to induce robust enteric muscle contractions (Exp)”. Also, the “activation of AEX-2/GPCR (in words)” value on AEX-2/GPCR is recorded as “able to activate AEX-2/GPCR”. The “relative potency at AEX-2/GPCR (in words)” value on AEX-2/GPCR (CHO/mtAEQ/Gα16 cells, NLP-40 P3-1 compared to NLP-40 P3-2) is recorded as “more potent ligand for AEX-2/GPCR”. In the case of APSAPAGLEEKL [NLP-40 P1], the “activation of AEX-2/GPCR (in words)” value on AEX-2/GPCR was “failed to activate AEX-2/GPCR at all concentrations tested”.
